# Measured values: the supplement of paper PMC10307832
# Key:
# Assay in all cases: relative viability (nuclei count vs DMSO), 5 days (fraction); higher = more cells survive
# [1] = compound: CN(C)C[C@@H]1CCn2cc(c3ccccc32)C2=C(C(=O)NC2=O)c2cn(c3ccccc23)CCO1 [Ruboxistaurin] + CC(C)C[C@H](NC(=O)[C@H](Cc1ccccc1)NC(=O)c1cnccn1)B(O)O [Bortezomib] (partner 0.002 µM)
# In short: (§1)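 Five library-drug doses in √10 steps were combined with a fixed anchor-drug dose, or a single drug was given alone, by pin tool to lung cancer cell lines in 1536-well plates the day after seeding. Nuclei were stained and counted after 5 days. Relative viability is the nuclei count in treated wells over that in vehicle wells, taken as the median of duplicate plates.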
# [2] = compound: CN(C)C[C@@H]1CCn2cc(c3ccccc32)C2=C(C(=O)NC2=O)c2cn(c3ccccc23)CCO1 [Ruboxistaurin] + Nc1nc2[nH]cc(CCc3ccc(C(=O)N[C@@H](CCC(=O)O)C(=O)O)cc3)c2c(=O)[nH]1 [Pemetrexed] (partner 0.2 µM)
# In short: as §1
# [3] = compound: CN(C)C[C@@H]1CCn2cc(c3ccccc32)C2=C(C(=O)NC2=O)c2cn(c3ccccc23)CCO1 [Ruboxistaurin] + Nc1ncn([C@H]2C[C@H](O)[C@@H](CO)O2)c(=O)n1 [Decitabine] (partner 2 µM)
# In short: as §1
# Ruboxistaurin + OSI-027 = compound: CN(C)C[C@@H]1CCn2cc(c3ccccc32)C2=C(C(=O)NC2=O)c2cn(c3ccccc23)CCO1 [Ruboxistaurin] + COc1cccc2cc(-c3nc([C@H]4CC[C@H](C(=O)O)CC4)n4ncnc(N)c34)[nH]c12 [OSI-027] (partner 0.5 µM)
# In short: as §1
# [4] = compound: CN(C)C[C@@H]1CCn2cc(c3ccccc32)C2=C(C(=O)NC2=O)c2cn(c3ccccc23)CCO1 [Ruboxistaurin] + C[C@@H](Oc1cc(-c2cnn(C3CCNCC3)c2)cnc1N)c1c(Cl)ccc(F)c1Cl [Crizotinib] (partner 1 µM)
# In short: as §1
Cell Line,relative viability ([1]; first compound 0.08 µM),relative viability ([1]; first compound 0.8 µM),relative viability ([1]; first compound 2.53 µM),relative viability ([1]; first compound 8 µM),relative viability ([2]; first compound 0.08 µM),relative viability ([2]; first compound 0.8 µM),relative viability ([2]; first compound 2.53 µM),relative viability ([2]; first compound 8 µM),relative viability ([3]; first compound 0.08 µM),relative viability ([3]; first compound 0.8 µM),relative viability ([3]; first compound 2.53 µM),relative viability ([3]; first compound 8 µM),relative viability (Ruboxistaurin + OSI-027; first compound 0.08 µM),relative viability (Ruboxistaurin + OSI-027; first compound 0.8 µM),relative viability (Ruboxistaurin + OSI-027; first compound 2.53 µM),relative viability (Ruboxistaurin + OSI-027; first compound 8 µM),relative viability ([4]; first compound 0.08 µM),relative viability ([4]; first compound 0.8 µM),relative viability ([4]; first compound 2.53 µM),relative viability ([4]; first compound 8 µM)
201T,1.12,1.08,1.12,1.15,0.31,0.327,0.311,0.31,0.858,0.834,0.824,0.914,0.694,0.723,0.675,0.59,1.05,0.972,1.08,1.05
A-427,1.01,0.952,0.97,0.731,0.994,0.926,0.958,0.923,0.605,0.527,0.564,0.548,0.506,0.406,0.458,0.343,1.01,0.676,0.911,0.732
ABC-1,0.357,0.339,0.308,0.261,,,,,1.19,0.696,1.26,0.942,0.692,0.386,0.481,0.331,1.41,0.45,1.29,0.784
BEN,0.903,0.78,0.702,0.677,0.801,0.695,0.716,0.528,0.815,0.698,0.724,0.549,0.347,0.31,0.262,0.286,0.92,0.818,0.894,0.658
CAL-12T,1.12,0.981,1.06,1.11,1.35,1.19,1.12,1.28,,,,,0.797,0.449,0.69,0.391,0.585,0.491,0.751,0.746
COR-L23,1.1,0.797,0.968,1.35,0.193,0.182,0.204,0.192,0.427,0.384,0.467,0.487,0.759,0.637,0.712,0.391,0.725,0.621,0.689,0.777
COR-L 105,0.906,0.651,0.823,0.685,1.3,0.912,1.05,1.26,0.618,0.595,0.681,0.611,0.881,0.565,0.62,0.443,0.8,0.828,0.868,0.664
ChaGo-K-1,1.27,1.06,1.05,0.939,0.272,0.247,0.26,0.267,0.592,0.487,0.53,0.535,0.658,0.572,0.618,0.449,1.21,1.05,1.11,1.2
EKVX,1.15,0.998,1.18,0.946,0.413,0.401,0.373,0.393,0.334,0.246,0.34,0.426,0.734,0.751,0.709,0.641,1.09,0.989,0.983,0.895
EMC-BAC-2,1.1,0.99,1.04,0.962,0.419,0.415,0.384,0.383,0.968,0.949,0.979,0.842,0.399,0.343,0.362,0.258,0.741,0.713,0.715,0.68
EPLC-272H,1.04,0.691,1.01,1.01,0.32,0.359,0.352,0.325,0.473,0.289,0.354,0.341,0.308,0.266,0.298,0.249,0.926,0.793,0.917,0.932
H3255,0.854,0.844,0.869,0.732,0.595,0.556,0.614,0.534,0.608,0.54,0.603,0.538,0.686,0.501,0.633,0.577,1.01,0.835,0.89,0.809
HARA,1.22,1.04,1.15,0.465,0.262,0.297,0.236,0.248,0.502,0.496,0.567,0.592,0.677,0.356,0.488,0.305,1.07,0.919,1.18,1.03
HCC-15,1.09,1.01,1.14,1.2,0.224,0.207,0.221,0.2,0.699,0.576,0.666,0.685,0.701,0.617,0.623,0.582,0.815,0.794,0.754,0.845
HCC-44,0.956,0.868,0.983,0.969,0.666,0.556,0.642,0.638,0.974,0.882,1.01,1.02,0.576,0.403,0.481,0.59,0.756,0.674,0.867,0.853
HCC-78,0.711,0.427,0.618,0.397,0.85,0.91,0.828,0.945,0.636,0.663,0.756,0.635,0.346,0.335,0.316,0.3,0.31,0.351,0.323,0.291
